From patent US20070243221A1, “ANTI-WRINKLE COMPOSITION” (L'OREAL, priority 2006, published 2007) come the findings set out here.

In the assay the test system is normal human fibroblasts. Put plainly: Dermo-decontracting effect: spontaneous contraction of equivalent dermis (collagen matrix seeded with normal human fibroblasts). It counts as cell-based. As to conditions: on average over the duration of the experiment (0, 4, 8 and 24 hours), equivalent dermis surface area. The text has this: The principle of this test consists in studying the effect of the test product on a model of equivalent dermis consisting of a collagen matrix seeded with normal human fibroblasts.
These conditions are intended to mimic in vitro the dermal contractile phenomena that take place during facial movements. The reason for this is that, under these conditions, the cells spontaneously exert tensile forces that induce a shrinkage of the collagen gel. […] Measurement of this area makes it possible to evaluate the relaxation effects of the substances placed in contact beforehand with the equivalent dermis.
Two series of attached equivalent dermides containing normal human fibroblasts are prepared: a control series without any treatment, and a series treated with the test compound (1 μM). The experiment is repeated three times.
The dermal equivalents are prepared as described in Asselineau et al., Exp. Cell. Res., 1985, 159, 536-539; Models in dermatology, 1987, vol. 3, pp. 1-7, in the following proportions:
The treated equivalent dermis differs from the control equivalent dermis in that 1 μM of the test compound has been added thereto. […]
To do this, a digital image is acquired for each treated or untreated equivalent dermis using a camera (CCD camera—Iris Sony DXC-107P) and the surface area is then calculated on each image by means of an image analysis system (Zeiss Axiovision 3.0). […]

Structures are written as SMILES.

In the case of `CC(NC1CCN(CCc2ccccc2)CC1)c1ccccc1` (centres unmarked) [compound 5, 1-(2-phenylethyl)-4-[N-(1-phenylethyl)]aminopiperidine], the “reduces the contraction of fibroblasts, compared with the control” value (tested at 10 μM) worked out at 40%.

As to `c1ccc(CCCNC2CCN(CCc3ccccc3)CC2)cc1` [compound 1, 1-(2-phenylethyl)-4-[N-(3-phenylpropyl)]aminopiperidine], the “reduces the contraction of fibroblasts, compared with the control” value (tested at 1 μM) came out at 21%.
